Results: patent publication US8278346B2, “Di-tin fused thiophene compounds and polymers and methods of making” (Corning Incorporated, priority 2010, dated 2012)

Test: Solubility of FT4 compounds and polymer in organic solvents
Assay type: physicochemical
Conditions: for solubility in diethyl ether / solubility in hexane: room temperature
Source text: Table 2 provides solubility properties and a solubility comparison of di-Br compound 7 and di-tin compound 8.

## CCCCCCCCCCCCCCCCCc1c(Br)sc2c1sc1c3sc(Br)c(CCCCCCCCCCCCCCCCC)c3sc21 [compound 7]
Table 2 solvents
  solubility in direct comparisons to compound 8: essentially insoluble or only partially soluble
  solubility in diethyl ether: practically insoluble
  solubility in hexane: practically insoluble

## CCCCCCCCCCCCCCCCCc1[c]([Sn]([CH3])([CH3])[CH3])sc2c1sc1c3s[c]([Sn]([CH3])([CH3])[CH3])c(CCCCCCCCCCCCCCCCC)c3sc21 [compound 8]
Compared to the corresponding di-bromo compound Br-DC17FT4-Br
  solubility in hexane, toluene, CH2Cl2, or mixtures thereof: excellent solubility
  solubility in diethyl ether: freely soluble
  solubility in hexane: freely soluble
